{"source": "patent US10538535B2", "about": "“Antitumoral compounds” (priority 2017, dated 2020)", "key": {"H526 tumors": {"tested_on": "H526 tumors", "assay": "In vivo xenograft, human lung (SCLC) H526", "details": "iv weekly, 39-S […], C 3 mg/Kg", "procedure": "Female athymic nu/nu mice (Harlan Laboratories Models, S. L. Barcelona, Spain or Envigo, Spain) were utilized for all experiments. Animal were housed in individually ventilated cages Sealsafe® Plus, Techniplast S.P.A.), up to ten per cage on a 12-hour light-dark cycle at 21-23° C. and 40-60% humidity. Mice were allowed free access to irradiated standard rodent diet (Tecklad 2914C) and sterilized water. Animals were acclimated for at least 5 days prior to tumor implantation with a tumor cell suspension.\nH526 cells were grown as a suspension and maintained by addition of fresh medium, as the cell density increases, every 2 to 3 days. Every week, culture was reestablished by centrifugation of the suspension with subsequent resuspension in fresh medium at a concentration of 1×10^5 cell/mL. Each animal was subcutaneously implanted (on the right flank using 26 G needle and a 1 cc syringe) at 4-6 weeks of age with 5×10^6 H526 cells suspended in 0.05 mL of a solution consisting of 50% Matrigel® (Corning Incorporated Life Sciences) and 50% medium without serum or antibiotics.\n(§2) Treatment tolerability was assessed by monitoring body weight evolution, clinical signs of systemic toxicity, as well as evidences of local damage in the injection site.\n(§3) Treatments producing >20% lethality and/or 20% net body weight loss were considered toxic."}, "A2780 tumors": {"tested_on": "A2780 tumors", "details": "iv, 3 mg/kg"}, "H82 tumors": {"tested_on": "H82 tumors", "assay": "In vivo xenograft, human lung (SCLC) H82", "details": "iv weekly, 39-S […], C 3 mg/Kg"}, "MDA-MB-231 tumors": {"tested_on": "MDA-MB-231 tumors", "details": "iv, 3 mg/kg"}, "HT29 cells": {"tested_on": "HT29 cells", "assay": "cells", "details": "Homo sapiens, HT-29, 72 h", "method_in_brief": "(§1)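 Cells seeded at 5000/well, attached 18 h, then treated 72 h with ten 2/5 serial dilutions (10 to 0.003 μg/mL, 1% final DMSO) in triplicate. Growth measured by SRB staining after glutaraldehyde fixation, with time-zero plate; values from NCI algorithm and four-parameter logistic fit.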"}, "A549 cells": {"tested_on": "A549 cells", "assay": "cells", "details": "Homo sapiens, A549, 72 h", "method_in_brief": "as §1"}, "PSN1 cells": {"tested_on": "PSN1 cells", "assay": "cells", "details": "Homo sapiens, PSN1, 72 h", "method_in_brief": "as §1"}, "MDA-MB-231 cells": {"tested_on": "MDA-MB-231 cells", "assay": "cells", "details": "Homo sapiens, MDA-MB-231, 72 h", "method_in_brief": "as §1"}, "H460 tumors": {"tested_on": "H460 tumors", "details": "iv, 3 mg/kg", "procedure": "Female athymic nu/nu mice (Harlan Laboratories Models, S. L. Barcelona, Spain or Envigo, Spain) were utilized for all experiments. Animal were housed in individually ventilated cages Sealsafe® Plus, Techniplast S.P.A.), up to ten per cage on a 12-hour light-dark cycle at 21-23° C. and 40-60% humidity. […] Animals were acclimated for at least 5 days prior to tumor implantation with a tumor cell suspension.\nH460 cells were maintained in vitro at 37° C. with 5% CO2 in Dulbecco's Modified Eagle's Medium (Sigma-Aldrich, Co). Culture cells were passaged every 3 to 5 days upon reaching confluence. Each animal was subcutaneously implanted (on the right flank using 26 G needle and a 1 cc syringe) at 4-6 weeks of age with 5×10^6 H460 cells suspended in 0.05 mL of a solution consisting of 50% Matrigel® (Corning Incorporated Life Sciences) and 50% medium without serum or antibiotics.\nas §2, §3"}}, "note": "Where two headings read alike, the source gives them in different places."}
{"smiles": "COc1c(C)cc2c(c1O)[C@@H]1[C@@H]3[C@@H]4SC[C@]5(N[C@H](C)Cc6c5[nH]c5ccccc65)C(=O)OC[C@@H](c5c6c(c(C)c(OC(C)=O)c54)OCO6)N3[C@@H](O)[C@H](C2)N1C", "note": "[C]", "values": [{"measurement": "Median Tumor Volume", "setting": "H526 tumors; Table 49, Day 0", "value": 217.9, "unit": "mm^3"}, {"measurement": "Median Tumor Volume", "setting": "H526 tumors; Table 49, Day 2", "value": 262.4, "unit": "mm^3"}, {"measurement": "Median Tumor Volume", "setting": "H526 tumors; Table 49, Day 4", "value": 108.3, "unit": "mm^3"}, {"measurement": "Median Tumor Volume", "setting": "H526 tumors; Table 49, Day 7", "value": 129.8, "unit": "mm^3"}, {"measurement": "Median Tumor Volume", "setting": "H526 tumors; Table 49, Day 9", "value": 85.9, "unit": "mm^3"}, {"measurement": "Median Tumor Volume", "setting": "H526 tumors; Table 49, Day 11", "value": 52.3, "unit": "mm^3"}, {"measurement": "Median Tumor Volume", "setting": "H526 tumors; Table 49, Day 14", "value": 54.1, "unit": "mm^3"}, {"measurement": "Median Tumor Volume", "setting": "H526 tumors; Table 49, Day 16", "value": 47.3, "unit": "mm^3"}, {"measurement": "Median Tumor Volume", "setting": "H526 tumors; Table 49, Day 21", "value": 4.0, "unit": "mm^3"}, {"measurement": "Median Tumor Volume", "setting": "H526 tumors; Table 49, Day 28", "value": 4.0, "unit": "mm^3"}, {"measurement": "Median Tumor Volume", "setting": "H526 tumors; Table 49, Day 35", "value": 4.0, "unit": "mm^3"}, {"measurement": "Median Tumor Volume", "setting": "H526 tumors; Table 49, Day 42", "value": 62.5, "unit": "mm^3"}, {"measurement": "Median Tumor Volume", "setting": "H526 tumors; Table 49, Day 49", "value": 53.5, "unit": "mm^3"}, {"measurement": "Median Tumor Volume", "setting": "H526 tumors; Table 49, Day 56", "value": 70.0, "unit": "mm^3"}, {"measurement": "Median Tumor Volume", "setting": "H526 tumors; Table 49, Day 63", "value": 132.3, "unit": "mm^3"}, {"measurement": "Median Tumor Volume", "setting": "H526 tumors; Table 49, Day 70", "value": 368.5, "unit": "mm^3"}, {"measurement": "Median Tumor Volume", "setting": "H526 tumors; Table 49, Day 77", "value": 465.8, "unit": "mm^3"}, {"measurement": "Median Tumor Volume", "setting": "H526 tumors; Table 49, Day 84", "value": 107.4, "unit": "mm^3"}, {"measurement": "Median Tumor Volume", "setting": "H526 tumors; Table 49, Day 91", "value": 130.0, "unit": "mm^3"}, {"measurement": "Median Tumor Volume", "setting": "H526 tumors; Table 49, Day 98", "value": 4.0, "unit": "mm^3"}, {"measurement": "Median Tumor Volume", "setting": "H526 tumors; Table 49, Day 105", "value": 4.0, "unit": "mm^3"}, {"measurement": "Median Tumor Volume", "setting": "H526 tumors; Table 49, Day 112", "value": 4.0, "unit": "mm^3"}, {"measurement": "Median Tumor Volume", "setting": "H526 tumors; Table 49, Day 119", "value": 4.0, "unit": "mm^3"}, {"measurement": "Median Tumor Volume", "setting": "H526 tumors; Table 49, Day 126", "value": 4.0, "unit": "mm^3"}, {"measurement": "Median Tumor Volume", "setting": "H526 tumors; Table 49, Day 133", "value": 4.0, "unit": "mm^3"}, {"measurement": "Median Tumor Volume", "setting": "H526 tumors; Table 49, Day 140", "value": 4.0, "unit": "mm^3"}, {"measurement": "Median Tumor Volume", "setting": "H526 tumors; Table 49, Day 147", "value": 4.0, "unit": "mm^3"}, {"measurement": "Median Tumor Volume", "setting": "H526 tumors; Table 49, Day 165", "value": 4.0, "unit": "mm^3"}, {"measurement": "Median Tumor Volume", "setting": "H526 tumors; Table 49, Day 175", "value": 4.0, "unit": "mm^3"}, {"measurement": "Median Tumor Volume", "setting": "H526 tumors; Table 49, Day 191", "value": 4.0, "unit": "mm^3"}, {"measurement": "Median Tumor Volume", "setting": "H526 tumors; Table 49, Day 205", "value": 4.0, "unit": "mm^3"}, {"measurement": "Median Tumor Volume", "setting": "A2780 tumors; 0 h", "value": 169.6, "unit": "mm^3"}, {"measurement": "Median Tumor Volume", "setting": "A2780 tumors; 48 h", "value": 206.3, "unit": "mm^3"}, {"measurement": "Median Tumor Volume", "setting": "A2780 tumors; 120 h", "value": 372.7, "unit": "mm^3"}, {"measurement": "Median Tumor Volume", "setting": "A2780 tumors; 168 h", "value": 607.6, "unit": "mm^3"}, {"measurement": "Median Tumor Volume", "setting": "A2780 tumors; 336 h", "value": 1293.9, "unit": "mm^3"}, {"measurement": "Median Tumor Volume", "setting": "A2780 tumors; 384 h", "value": 1683.5, "unit": "mm^3"}, {"measurement": "Median Tumor Volume", "setting": "A2780 tumors; 456 h", "value": 2137.5, "unit": "mm^3"}, {"measurement": "Median Tumor Volume", "setting": "H82 tumors; Table 50, Day 0", "value": 170.5, "unit": "mm^3"}, {"measurement": "Median Tumor Volume", "setting": "H82 tumors; Table 50, Day 2", "value": 265.3, "unit": "mm^3"}, {"measurement": "Median Tumor Volume", "setting": "H82 tumors; Table 50, Day 5", "value": 488.7, "unit": "mm^3"}, {"measurement": "Median Tumor Volume", "setting": "H82 tumors; Table 50, Day 7", "value": 760.0, "unit": "mm^3"}, {"measurement": "Median Tumor Volume", "setting": "H82 tumors; Table 50, Day 9", "value": 899.5, "unit": "mm^3"}, {"measurement": "Median Tumor Volume", "setting": "H82 tumors; Table 50, Day 12", "value": 1038.5, "unit": "mm^3"}, {"measurement": "Median Tumor Volume", "setting": "H82 tumors; Table 50, Day 14", "value": 1213.4, "unit": "mm^3"}, {"measurement": "Median Tumor Volume", "setting": "H82 tumors; Table 50, Day 16", "value": 1256.4, "unit": "mm^3"}, {"measurement": "Median Tumor Volume", "setting": "H82 tumors; Table 50, Day 19", "value": 1741.5, "unit": "mm^3"}, {"measurement": "Median Tumor Volume", "setting": "H82 tumors; Table 50, Day 21", "value": 1878.8, "unit": "mm^3"}, {"measurement": "Median Tumor Volume", "setting": "H82 tumors; Table 50, Day 23", "value": 2057.0, "unit": "mm^3"}, {"measurement": "Median Tumor Volume", "setting": "MDA-MB-231 tumors; 0 h", "value": 149.4, "unit": "mm^3"}, {"measurement": "Median Tumor Volume", "setting": "MDA-MB-231 tumors; 48 h", "value": 217.1, "unit": "mm^3"}, {"measurement": "Median Tumor Volume", "setting": "MDA-MB-231 tumors; 120 h", "value": 281.3, "unit": "mm^3"}, {"measurement": "Median Tumor Volume", "setting": "MDA-MB-231 tumors; 168 h", "value": 338.6, "unit": "mm^3"}, {"measurement": "Median Tumor Volume", "setting": "MDA-MB-231 tumors; 336 h", "value": 436.9, "unit": "mm^3"}, {"measurement": "Median Tumor Volume", "setting": "MDA-MB-231 tumors; 384 h", "value": 585.7, "unit": "mm^3"}, {"measurement": "Median Tumor Volume", "setting": "MDA-MB-231 tumors; 456 h", "value": 774.7, "unit": "mm^3"}, {"measurement": "Median Tumor Volume", "setting": "MDA-MB-231 tumors; 504 h", "value": 965.9, "unit": "mm^3"}, {"measurement": "Median Tumor Volume", "setting": "MDA-MB-231 tumors; 552 h", "value": 1215.2, "unit": "mm^3"}, {"measurement": "Median Tumor Volume", "setting": "MDA-MB-231 tumors; 672 h", "value": 1785.3, "unit": "mm^3"}, {"measurement": "Median Tumor Volume", "setting": "MDA-MB-231 tumors; 720 h", "value": 2037.1, "unit": "mm^3"}, {"measurement": "GI50", "setting": "HT29 cells", "value": 20.8, "unit": "nM"}, {"measurement": "CC50", "setting": "HT29 cells; read-out: LC50", "value": "> 130", "unit": "nM"}, {"measurement": "IC (TGI)", "setting": "HT29 cells; read-out: TGI", "value": 23.4, "unit": "nM"}, {"measurement": "GI50", "setting": "A549 cells", "value": 27.3, "unit": "nM"}, {"measurement": "CC50", "setting": "A549 cells; read-out: LC50", "value": "> 130", "unit": "nM"}, {"measurement": "IC (TGI)", "setting": "A549 cells; read-out: TGI", "value": 66.3, "unit": "nM"}, {"measurement": "GI50", "setting": "PSN1 cells", "value": 36.4, "unit": "nM"}, {"measurement": "CC50", "setting": "PSN1 cells; read-out: LC50", "value": 65, "unit": "nM"}, {"measurement": "IC (TGI)", "setting": "PSN1 cells; read-out: TGI", "value": 44.2, "unit": "nM"}, {"measurement": "GI50", "setting": "MDA-MB-231 cells", "value": 26, "unit": "nM"}, {"measurement": "CC50", "setting": "MDA-MB-231 cells; read-out: LC50", "value": "> 130", "unit": "nM"}, {"measurement": "IC (TGI)", "setting": "MDA-MB-231 cells; read-out: TGI", "value": 54.6, "unit": "nM"}, {"measurement": "Median Tumor Volume", "setting": "H460 tumors; 0 h", "value": 186.1, "unit": "mm^3"}, {"measurement": "Median Tumor Volume", "setting": "H460 tumors; 48 h", "value": 395.4, "unit": "mm^3"}, {"measurement": "Median Tumor Volume", "setting": "H460 tumors; 120 h", "value": 665.9, "unit": "mm^3"}, {"measurement": "Median Tumor Volume", "setting": "H460 tumors; 168 h", "value": 929.5, "unit": "mm^3"}, {"measurement": "Median Tumor Volume", "setting": "H460 tumors; 336 h", "value": 2025.0, "unit": "mm^3"}, {"measurement": "Median Tumor Volume", "setting": "H460 tumors; 384 h", "value": 2025.0, "unit": "mm^3"}]}
